# Reference: patent US9446088B2, “Preparation and use of a plant extract from solanum glaucophyllum with an enriched content of 1,25 dihydroxyvitamin D3 glycosides and quercetin glycosides” (HERBONIS AG, priority 2008, dated 2016)
# Legend:
# [1] = system: commercial broiler chickens; assay: Broiler experiment for leg anomalies (tibial dyschondroplasia); assay type: in vivo; set-up: dose or concentration left out as unconfirmed; conditions: after day 14 of treatment
# Description: In experiment 2, male one-day old broiler chickens were fed a commercial diet containing 1,000 IUD/kg feed of vitamin D3 ad libitum. […] 76.8 μg 1,25-Dihydroxyvitamin D3 (determined after in vitro hydrolysis of the extract).
# [2] = system: Japanese quails (Coturnix japonica) on Vitamin D-deficient diet; assay: Japanese quail eggshell bioassay for vitamin D activity; assay type: in vivo
# Description: From Rambeck et al. (see Rambeck et al, Ann. Nutr. Metab. 30, 9-14, (1986)) it is known that the quail egg shell assay is used as a simple bioassay to assess Vitamin D activity. According to this assay, Japanese quails (Coturnix japonica) of egg laying age and selected for a laying performance of >80% were set on a Vitamin D-deficient diet containing all other nutrients in optimal amounts. After approximately 8 days, the laying performance as the most sensitive marker dropped below 10%. Then, the test animals were randomly divided into groups of 10 animals and the diet was changed to the same diet, but supplemented with the substance to be tested. Laying performance was monitored for 21 days together with other markers of vitamin D-metabolism, such as alkaline phosphatase and calcium in plasma.
# In Experiment 1 three groups of quails received 100, 200 and 400 international units of vitamin D3 per kg feed, 5 groups received 2, 8, 32, 128 and […] purified plant extract and one group was given synthetic 1, 25-Dihydroxyvitamin D3 (1 μg/kg feed) and another group received ground dried leaves of Solanum glaucophyllum (1000 mg/kg feed).
Structure (SMILES),Healthy animals. (%) [1],Occurrence of TD (%) [1],Occurrence of other leg anomalies (%) [1],"Eggshell weight (ESW) per day and animal, days 5-21 ([2]; 1 μg per kg feed)",Average egg weight between day 1 and 21 ([2]; 1.0 μg/kg feed),Egg weight in % of standard group Vitamin D3 400 IUD/kg feed ([2]; 1.0 μg/kg feed),"Eggshell weight (ESW) per day and animal, days 5-21 ([2]; 100 IUD per kg feed)",Average egg weight between day 1 and 21 ([2]; 100 IUD/kg feed),Egg weight in % of standard group Vitamin D3 400 IUD/kg feed ([2]; 100 IUD/kg feed),"Eggshell weight (ESW) per day and animal, days 5-21 ([2]; 200 IUD per kg feed)",Average egg weight between day 1 and 21 ([2]; 200 IUD/kg feed),Egg weight in % of standard group Vitamin D3 400 IUD/kg feed ([2]; 200 IUD/kg feed),"Eggshell weight (ESW) per day and animal, days 5-21 ([2]; 400 IUD per kg feed)",Average egg weight between day 1 and 21 ([2]; 400 IUD/kg feed),time by which laying performance passed 50% after beginning of treatment ([2]; onset of egg laying)
"C=C1/C(=C\C=C2/CCC[C@]3(C)[C@@H]([C@H](C)CCCC(C)(C)O)CC[C@@H]23)C[C@@H](O)C[C@@H]1O [Synthetic 1,25(OH)2D3, 1,25-dihydroxyvitamin D3]",92.9 b %,3.55 *b %,3.55 b %,0.502 g,10.58 g,99%,–,–,–,–,–,–,–,–,–
"C=C1CC[C@H](O)C/C1=C/C=C1\CCC[C@]2(C)[C@@H]([C@H](C)CCCC(C)C)CC[C@@H]12 [Vitamin D3, cholecalciferol]",–,–,–,–,–,–,0.231 g,9.61 g,90%,0.434 g,10.40 g,97%,0.738 g,10.70 g,48 to 72 h
